Data on 12 compounds can be found in patent publication US10821115B2, “Compounds that inhibit Mcl-1 protein” (priority 2017, dated 2020).

Read-outs that look alike come from different tables or passages of the source.

Broadly, the IC50 is the concentration that inhibits the measured activity by half.

Assay [1] has as its system human multiple myeloma cell line, OPM-2. The experiment in a line: Cell viability assay (OPM-2 10 FBS), CellTiter-Glo. It is filed as cell-based. In a few lines: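 Serially diluted test compounds are incubated 16 h with cells (3000/well) in RPMI 1640 supplemented with 10% FBS. Viability is then measured by luminescence and IC50 calculated by 4-parameter logistic fit.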
A general note: In ATP-based viability assays light output follows the ATP content of the culture.

Assay [2] concerns the target recombinant human Mcl-1 (residues 171-327) / Bim interaction (Homo sapiens (Human), UniProt Q07820). The experiment in a line: biochemical. It is filed as binding. Particulars: read-out: Mcl-1 HTRF IC50. On the technique in general: In TR-FRET formats the signal depends on donor and acceptor labels being close together.
Assay [3] concerns OPM-2 Luc cells. The experiment in a line: OPM-2 xenograft efficacy model. The assay is classed as in vivo. Conditions: dosed orally to female athymic nude mice inoculated with OPM-2 Luc cells. The procedure:
Example 1 was dosed orally to female athymic nude mice inoculated with OPM-2 Luc cells.

Assay [4] relates to OPM-2 Luc cells. The assay is described as follows: tumor PD model (OPM-2 Luc). Conditions: dosed orally to female athymic nude mice inoculated with OPM-2 Luc cells; compared with Reference Compound 1. The assay is classed as in vivo. The procedure:
Both compounds were dosed orally to female athymic nude mice inoculated with OPM-2 Luc cells.

[5] abbreviates: read-out: OPM-2 10% FBS IC50 IP, OPM-2 cells, 10% FBS, 16 h incubation.
[6] abbreviates: 0.1 nM Mcl-1(171-327), 0.05 nM biotin-Bim (51-76).
Setting [7] is: Homo sapiens, OPM-2, 16 h, read-out: OPM-2 10% FBS IC50 IP, OPM-2 cells, 10% FBS, 16 h incubation.

recombinant human Mcl-1 (residues 171-327) / Bim interaction, sequence (Q07820 171-327): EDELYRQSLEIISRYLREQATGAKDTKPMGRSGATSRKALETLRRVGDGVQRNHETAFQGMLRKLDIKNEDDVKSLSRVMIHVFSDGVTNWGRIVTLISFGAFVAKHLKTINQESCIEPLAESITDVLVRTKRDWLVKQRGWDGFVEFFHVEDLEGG

Consider `CCO[C@]1(CN2CCN3CCOC[C@@H]3C2)/C=C/C[C@H](C)[C@@H](C)S(=O)(=O)NC(=O)c2ccc3c(c2)N(C[C@@H]2CC[C@H]21)C[C@@]1(CCCc2cc(Cl)ccc21)CO3` [Example 1, (1 S,3′R,6′R,7′R,8′E, 11′S,12′R)-6-chloro-7′-ethoxy-7′-((9aS)-hexahydropyrazino[2,1-c][1,4]oxazin-8(1H)-ylmethyl)-11′,12′-dimethyl-3,4-dihydro-2H,15′H-spiro[naphthalene-1,22′-[20]oxa[13]thia[1,14]diazatetracyclo[14.7.2.0-3,6˜.0˜19,24˜]pentacosa[8,16,18,24]tetraen]-15′-one 13′,13′-dioxide], for which the IC50 in assay [1] (setting [5]) is 85 nM; in assay [2] (setting [6]) it was 0.086 nM. Further, the “in vivo efficacy in an OPM-2 xenograft efficacy model” value in the assay on OPM-2 Luc cells [3] is reported as “in vivo efficacy”. The “in vivo efficacy relative to Reference Compound 1 in a tumor PD model” value in the assay with OPM-2 Luc cells [4] was “superior in vivo efficacy”.

In the case of `CO[C@]1(CN2CCN3CCCC[C@@H]3C2)/C=C/C[C@H](C)[C@@H](C)S(=O)(=O)NC(=O)c2ccc3c(c2)N(C[C@@H]2CC[C@H]21)C[C@@]1(CCCc2cc(Cl)ccc21)CO3` [Example 10, (1 S,3′R,6′R,7′R,8′E, 11′S,12′R)-6-CHLORO-7′-METHOXY-11′,12′-DIMETHYL-7′-((9AR)-OCTAHYDRO-2H-PYRIDO[1,2-A]PYRAZIN-2-YLMETHYL)-3,4-DIHYDRO-2H, 15′H-SPIRO [NAPHTHALENE-1,22′-[20]OXA[13]THIA[1,14]DIAZATETRACYCLO [14.7.2.0-3,6˜.0˜19,24˜]PENTACOSA[8,16,18,24]TETRAEN]-15′-ONE 13′,13′-DIOXIDE], the IC50 in assay [1] (setting [5]) was found to be 75 nM. The “in vivo efficacy in an OPM-2 xenograft efficacy model” value with OPM-2 Luc cells [3] is recorded as “in vivo efficacy”.

“(1 S,3′R,6′R,7′R,8′E,11′S,12′R)-6-chloro-7′-((9aS)-hexahydropyrazino[2,1-c][1,4]oxazin-8(1H)-ylmethyl)-7′-methoxy-12′-(2-methoxyethyl)-11′-methyl-3,4-dihydro-2H, 15′H-spiro[naphthalene-1,22′-[20]oxa[13]thia[1,14]diazatetracyclo[14.7.2.0-3,6˜.0˜19,24˜]pentacosa[8,16,18,24]tetraen]-15′-one 13′,13′-dioxide [Example 11]”: the IC50 in assay [1] (setting [5]) stood at 51 nM. Further, the “in vivo efficacy in an OPM-2 xenograft efficacy model” value in the assay with OPM-2 Luc cells [3] is on record as “in vivo efficacy”.

For `CO[C@]1(CN2CCN(C3COC3)CC2)/C=C/C[C@H](C)[C@@H](C)S(=O)(=O)NC(=O)c2ccc3c(c2)N(C[C@@H]2CC[C@H]21)C[C@@]1(CCCc2cc(Cl)ccc21)CO3` [Example 3, (1 S,3′R,6′R,7′R,8′E,11′S,12′R)-6-chloro-7′-methoxy-11′,12′-dimethyl-7′-((4-(3-oxetanyl)-1-piperazinyl)methyl)-3,4-dihydro-2H, 15′H-spiro[naphthalene-1,22′-[20]oxa[13]thia[1,14]diazatetracyclo[14.7.2.0-3,6˜.0˜19,24˜]pentacosa[8,16,18,24]tetraen]-15′-one 13′,13′-dioxide], the figures for the IC50 in assay [1] (setting [5]) and in assay [2] (setting [6]) were 60 nM and 0.094 nM, respectively. In addition, the “in vivo efficacy relative to Reference Compound 1 in a tumor PD model” value in the assay on OPM-2 Luc cells [4] is on record as “superior in vivo efficacy”.

For `CO[C@]1(CN2CCN3CCOC[C@@H]3C2)/C=C/C[C@H](C)[C@@H](C)S(=O)(=O)NC(=O)c2ccc3c(c2)N(C[C@@H]2CC[C@H]21)C[C@@]1(CCCc2cc(Cl)ccc21)CO3` [Example 4, (1S,3′R,6′R,7′R,8′E,11′S,12′R)-6-CHLORO-7′-((9AS)-HEXAHYDROPYRAZINO[2,1-C][1,4]OXAZIN-8(1H)-YLMETHYL)-7′-METHOXY-11′,12′-DIMETHYL-3,4-DIHYDRO-2H, 15′H-SPIRO[NAPHTHALENE-1,22′-[20]OXA[13]THIA[1,14]DIAZATETRACYCLO[14.7.2.0-3,6˜.0˜19,24˜]PENT ACOSA[8,16,18,24]TETRAEN]-15′-ONE 13′,13′-DIOXIDE], the IC50 in assay [1] (setting [5]) was found to be 94 nM; in assay [2] (setting [6]), 0.116 nM. In the assay with OPM-2 Luc cells [3], the “in vivo efficacy in an OPM-2 xenograft efficacy model” value was “in vivo efficacy”. In addition, the “in vivo efficacy relative to Reference Compound 1 in a tumor PD model” value in the assay with OPM-2 Luc cells [4] was “superior in vivo efficacy”.

With “(1 S,3′R,6′R,7′S,8′E,11′S, 12′R)-6-chloro-7′-((9aS)-hexahydropyrazino[2,1-c][1,4]oxazin-8(1H)-ylmethyl)-7′-methoxy-11′,12′-dimethyl-3,4-dihydro-2H, 15′H-spiro[naphthalene-1,22′-[20]oxa[13]thia[1,14,25]triazatetracyclo[14.7.2.0-3,6˜.0˜19,24˜]pentacosa[8,16,18,24]tetraen]-15′-one 13′,13′-dioxide [Example 18]”, the IC50 turned out to be 22 nM in assay [1] (setting [5]) and 0.06 nM in assay [2] (setting [6]). The “in vivo efficacy in an OPM-2 xenograft efficacy model” value in the assay with OPM-2 Luc cells [3] was “in vivo efficacy”. Also, the “in vivo efficacy relative to Reference Compound 1 in a tumor PD model” value in the assay with OPM-2 Luc cells [4] is “superior in vivo efficacy”.

Regarding `CCCCO[C@]1(CN2CCN3CCOC[C@@H]3C2)/C=C/C[C@H](C)[C@@H](C)S(=O)(=O)NC(=O)c2ccc3c(c2)N(C[C@@H]2CC[C@H]21)C[C@@]1(CCCc2cc(Cl)ccc21)CO3` [Example 48, (1S,3′R,6′R,7′R,8′E,11′S,12′R)-7′-butoxy-6-chloro-7′-((9aS)-hexahydropyrazino[2,1-c][1,4]oxazin-8(1H)-ylmethyl)-11′,12′-dimethyl-3,4-dihydro-2H,15′H-spiro[naphthalene-1,22′-[20]oxa[13]thia[1,14]diazatetracyclo [14.7.2.0~3,6~.0~19,24~]pentacosa[8,16,18,24]tetraen]-15′-one 13′,13′-dioxide], the IC50 amounted to 407 nM in assay [1] (setting [7]) and 0.14 nM in assay [2] (setting [6]).

`CO[C@]1(CN(C)CCN2CCOCC2)/C=C/C[C@H](C)[C@@H](C)S(=O)(=O)NC(=O)c2ccc3c(c2)N(C[C@@H]2CC[C@H]21)C[C@@]1(CCCc2cc(Cl)ccc21)CO3` [Example 37, (1S,3′R,6′R,7′R,8′E,11′S,12′R)-6-chloro-7′-methoxy-11′,12′-dimethyl-7′-((methyl(2-(4-morpholinyl)ethyl)amino)methyl)-3,4-dihydro-2H,15′H-spiro[naphthalene-1,22′-[20]oxa[13]thia[1,14]diazatetracyclo [14.7.2.0~3,6~.0~19,24~]pentacosa[8,16,18,24]tetraen]-15′-one 13′,13′-dioxide]: the IC50 in assay [1] (setting [7]) came to 643 nM; in assay [2] (setting [6]), 0.615 nM.

As to `C[C@@H]1[C@@H](C)C/C=C/[C@@](O)(Cc2ccccn2)[C@@H]2CC[C@H]2CN2C[C@@]3(CCCc4cc(Cl)ccc43)COc3ccc(cc32)C(=O)NS1(=O)=O` [Example 100241, (1S,3′R,6′R,7′S,8′E,11′S,12′R)-6-chloro-7′-hydroxy-11′,12′-dimethyl-7′-(2-pyridinylmethyl)-3,4-dihydro-2H,15′H-spiro[naphthalene-1,22′-[20]oxa[13]thia[1,14]diazatetracyclo [14.7.2.0~3,6~.0~19,24~]pentacosa[8,16,18,24]tetraen]-15′-one 13′,13′-dioxide], the IC50 came out at 401 nM in assay [1] (read-out: OPM-2 10% FBS IC50 IP, OPM-2 cells, 10% FBS, 16 h, CellTiter-Glo) and 0.365 nM in assay [2] (TR-FRET, Mcl-1(171-327) / biotin-Bim (51-76)).

`CCO[C@]1(CN2CCN3CCCC[C@@H]3C2)/C=C/C[C@H](C)[C@@H](C)S(=O)(=O)NC(=O)c2ccc3c(c2)N(C[C@@H]2CC[C@H]21)C[C@@]1(CCCc2cc(Cl)ccc21)CO3` [Example 108, (1S,3′R,6′R,7′R,8′E,11′S,12′R)-6-chloro-7′-ethoxy-11′,12′-dimethyl-7′-((9aR)-octahydro-2H-pyrido[1,2-a]pyrazin-2-ylmethyl)-3 ,4-dihydro-2H,15′H-spiro[naphthalene-1,22′-[20]oxa[13]thia[1,14]diazatetracyclo [14.7.2.0~3,6~.0~19,24~]pentacosa[8,16,18,24]tetraen]-15′-one 13′,13′-dioxide]: the IC50 in assay [1] (setting [7]) was 116 nM; in assay [2] (setting [6]) it was 0.198 nM.

Consider `COCCN1CCN(C[C@]2(OC)/C=C/C[C@H](C)[C@@H](C)S(=O)(=O)NC(=O)c3ccc4c(c3)N(C[C@@H]3CC[C@H]32)C[C@@]2(CCCc3cc(Cl)ccc32)CO4)CC1` [Example 195, (1S,3′R,6′R,7′S,8′E,11′S,12′R)-6-chloro-7′-methoxy-7′-((4-(2-methoxyethyl)-1-piperazinyl)methyl)-11′,12′-dimethyl-3,4-dihydro-2H,15′H-spiro[naphthalene-1,22′-[20]oxa[13]thia[1,14]diazatetracyclo [14.7.2.0~3,6~.0~19,24~]pentacosa[8,16,18,24]tetraen]-15′-one 13′,13′-dioxide], for which the IC50 in assay [1] (setting [7]) came out at 65 nM; in assay [2] (setting [6]) it was 0.214 nM.

`COCCCN1CCN(C[C@]2(OC)/C=C/C[C@H](C)[C@@H](C)S(=O)(=O)NC(=O)c3ccc4c(c3)N(C[C@@H]3CC[C@H]32)C[C@@]2(CCCc3cc(Cl)ccc32)CO4)CC1` [Example 302, (1S,3′R,6′R,7′S,8′E,11′S,12′R)-6-chloro-7′-methoxy-7′-((4-(3-methoxypropyl)-1-piperazinyl)methyl)-11′,12′-dimethyl-3,4-dihydro-2H,15′H-spiro[naphthalene-1,22′-[20]oxa[13]thia[1,14]diazatetracyclo [14.7.2.0~3,6~.0~19,24~]pentacosa[8,16,18,24]tetraen]-15′-one 13′,13′-dioxide]: the IC50 in assay [1] (setting [7]) stood at 84 nM; in assay [2] (setting [6]), 0.107 nM.
